# PubChem BioAssay (NCI)
#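 How tested: cells in 96-well plates exposed to compound for 48 hours at five concentrations. GI50: concentration for 50% inhibition of growth. TGI denotes the concentration required for complete inhibition of growth.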
# Experiments:
# Assay in all cases: growth of human tumour cells (NCI), 48 h
# 786-0 renal = test system: 786-0 renal
# CAKI-1 renal = test system: CAKI-1 renal
# HOP-92 NSCLC = test system: HOP-92 NSCLC
# SNB-75 CNS = test system: SNB-75 CNS
# ACHN renal = test system: ACHN renal
# U251 CNS = test system: U251 CNS
# UO-31 renal = test system: UO-31 renal
# MCF7 breast = test system: MCF7 breast
# SK-MEL-5 melanoma = test system: SK-MEL-5 melanoma
# KM12 colon = test system: KM12 colon
# SF-268 CNS = test system: SF-268 CNS
# HOP-62 NSCLC = test system: HOP-62 NSCLC
# A498 renal = test system: A498 renal
# UACC-62 melanoma = test system: UACC-62 melanoma
# UACC-257 melanoma = test system: UACC-257 melanoma
# SR leukemia = test system: SR leukemia
# TK-10 renal = test system: TK-10 renal
# NCI-H226 lung = test system: NCI-H226 lung
# HCT-116 colon = test system: HCT-116 colon
# OVCAR-4 ovarian = test system: OVCAR-4 ovarian
# NCI/ADR-RES ovarian = test system: NCI/ADR-RES ovarian
# MALME-3M melanoma = test system: MALME-3M melanoma
# SNB-19 CNS = test system: SNB-19 CNS
# T-47D breast = test system: T-47D breast
# A549 NSCLC = test system: A549 NSCLC
# NCI-H522 lung = test system: NCI-H522 lung
# DU-145 prostate = test system: DU-145 prostate
# OVCAR-8 ovarian = test system: OVCAR-8 ovarian
# RXF 393 renal = test system: RXF 393 renal
# M14 melanoma = test system: M14 melanoma
# MDA-MB-231 breast = test system: MDA-MB-231 breast
# SN12C renal = test system: SN12C renal
# SF-539 CNS = test system: SF-539 CNS
# BT-549 breast = test system: BT-549 breast
# RPMI-8226 leukemia = test system: RPMI-8226 leukemia
# NCI-H23 lung = test system: NCI-H23 lung
# PC-3 prostate = test system: PC-3 prostate
# HL-60(TB) leukemia = test system: HL-60(TB) leukemia
# MOLT-4 leukemia = test system: MOLT-4 leukemia
# LOX IMVI melanoma = test system: LOX IMVI melanoma
# HCC-2998 colon = test system: HCC-2998 colon
# IGROV1 ovarian = test system: IGROV1 ovarian
# SK-OV-3 ovarian = test system: SK-OV-3 ovarian
# OVCAR-5 ovarian = test system: OVCAR-5 ovarian
# HT29 colon = test system: HT29 colon
# SW-620 colon = test system: SW-620 colon
# SK-MEL-2 melanoma = test system: SK-MEL-2 melanoma
# HCT-15 colon = test system: HCT-15 colon
# NCI-H460 lung = test system: NCI-H460 lung
# SF-295 CNS = test system: SF-295 CNS
# SK-MEL-28 melanoma = test system: SK-MEL-28 melanoma
# K-562 leukemia = test system: K-562 leukemia
# OVCAR-3 ovarian = test system: OVCAR-3 ovarian
# MDA-MB-435 = test system: MDA-MB-435
# COLO 205 colon = test system: COLO 205 colon
# CCRF-CEM leukemia = test system: CCRF-CEM leukemia
# EKVX NSCLC = test system: EKVX NSCLC
smiles,measurement,setting,value
COc1cc(-c2c3c(cn2S(=O)(=O)c2ccccc2)-c2nc(N)sc2CC3)cc(OC)c1OC,GI50,786-0 renal,1.71 µM
same,TGI,786-0 renal,19.7 µM
same,GI50,CAKI-1 renal,0.724 µM
same,TGI,CAKI-1 renal,36.6 µM
same,GI50,HOP-92 NSCLC,0.407 µM
same,TGI,HOP-92 NSCLC,8.34 µM
same,GI50,SNB-75 CNS,0.222 µM
same,TGI,SNB-75 CNS,1.1 µM
same,GI50,ACHN renal,0.797 µM
same,TGI,ACHN renal,31.1 µM
same,GI50,U251 CNS,0.591 µM
same,TGI,U251 CNS,10.5 µM
same,GI50,UO-31 renal,2.98 µM
same,TGI,UO-31 renal,> 100 µM
same,GI50,MCF7 breast,0.381 µM
same,TGI,MCF7 breast,21.4 µM
same,GI50,SK-MEL-5 melanoma,0.579 µM
same,TGI,SK-MEL-5 melanoma,18.8 µM
same,GI50,KM12 colon,0.722 µM
same,TGI,KM12 colon,> 100 µM
same,GI50,SF-268 CNS,4.46 µM
same,TGI,SF-268 CNS,> 100 µM
same,GI50,HOP-62 NSCLC,2.05 µM
same,TGI,HOP-62 NSCLC,63.2 µM
same,GI50,A498 renal,0.56 µM
same,TGI,A498 renal,22.3 µM
same,GI50,UACC-62 melanoma,0.729 µM
same,TGI,UACC-62 melanoma,> 100 µM
same,GI50,UACC-257 melanoma,10.3 µM
same,TGI,UACC-257 melanoma,60.1 µM
same,GI50,SR leukemia,0.35 µM
same,TGI,SR leukemia,15.6 µM
same,GI50,TK-10 renal,5.2 µM
same,TGI,TK-10 renal,30.1 µM
same,GI50,NCI-H226 lung,11.2 µM
same,TGI,NCI-H226 lung,47.4 µM
same,GI50,HCT-116 colon,0.515 µM
same,TGI,HCT-116 colon,21.3 µM
same,GI50,OVCAR-4 ovarian,2.04 µM
same,TGI,OVCAR-4 ovarian,32.3 µM
same,GI50,NCI/ADR-RES ovarian,0.612 µM
same,TGI,NCI/ADR-RES ovarian,> 100 µM
same,GI50,MALME-3M melanoma,0.449 µM
same,TGI,MALME-3M melanoma,38 µM
same,GI50,SNB-19 CNS,11 µM
same,TGI,SNB-19 CNS,> 100 µM
same,GI50,T-47D breast,0.433 µM
same,TGI,T-47D breast,20.6 µM
same,GI50,A549 NSCLC,0.58 µM
same,TGI,A549 NSCLC,17.1 µM
same,GI50,NCI-H522 lung,0.349 µM
same,TGI,NCI-H522 lung,6.83 µM
same,GI50,DU-145 prostate,1.54 µM
same,TGI,DU-145 prostate,41.9 µM
same,GI50,OVCAR-8 ovarian,2.4 µM
same,TGI,OVCAR-8 ovarian,29.2 µM
same,GI50,RXF 393 renal,1.04 µM
same,TGI,RXF 393 renal,14.5 µM
same,GI50,M14 melanoma,0.612 µM
same,TGI,M14 melanoma,> 100 µM
same,GI50,MDA-MB-231 breast,1.1 µM
same,TGI,MDA-MB-231 breast,79.1 µM
same,GI50,SN12C renal,4.45 µM
same,TGI,SN12C renal,> 100 µM
same,GI50,SF-539 CNS,0.548 µM
same,TGI,SF-539 CNS,5.07 µM
same,GI50,BT-549 breast,2.75 µM
same,TGI,BT-549 breast,43.1 µM
same,GI50,RPMI-8226 leukemia,0.79 µM
same,TGI,RPMI-8226 leukemia,56 µM
same,GI50,NCI-H23 lung,4.29 µM
same,TGI,NCI-H23 lung,> 100 µM
same,GI50,PC-3 prostate,0.549 µM
same,TGI,PC-3 prostate,25.8 µM
same,GI50,HL-60(TB) leukemia,0.385 µM
same,TGI,HL-60(TB) leukemia,4.32 µM
same,GI50,MOLT-4 leukemia,0.701 µM
same,TGI,MOLT-4 leukemia,43.1 µM
same,GI50,LOX IMVI melanoma,0.987 µM
same,TGI,LOX IMVI melanoma,> 100 µM
same,GI50,HCC-2998 colon,4.81 µM
same,TGI,HCC-2998 colon,> 100 µM
same,GI50,IGROV1 ovarian,2.23 µM
same,TGI,IGROV1 ovarian,75.1 µM
same,GI50,SK-OV-3 ovarian,1.17 µM
same,TGI,SK-OV-3 ovarian,9.77 µM
same,GI50,OVCAR-5 ovarian,4.25 µM
same,TGI,OVCAR-5 ovarian,> 100 µM
same,GI50,HT29 colon,0.384 µM
same,TGI,HT29 colon,3.44 µM
same,GI50,SW-620 colon,0.39 µM
same,TGI,SW-620 colon,> 100 µM
same,GI50,SK-MEL-2 melanoma,0.596 µM
same,TGI,SK-MEL-2 melanoma,12.7 µM
same,GI50,HCT-15 colon,0.432 µM
same,TGI,HCT-15 colon,27.2 µM
same,GI50,NCI-H460 lung,0.51 µM
same,TGI,NCI-H460 lung,18.4 µM
same,GI50,SF-295 CNS,0.372 µM
same,TGI,SF-295 CNS,3.52 µM
same,GI50,SK-MEL-28 melanoma,1.12 µM
same,TGI,SK-MEL-28 melanoma,29.8 µM
same,GI50,K-562 leukemia,0.431 µM
same,TGI,K-562 leukemia,> 100 µM
same,GI50,OVCAR-3 ovarian,0.414 µM
same,TGI,OVCAR-3 ovarian,6.9 µM
same,GI50,MDA-MB-435,0.238 µM
same,TGI,MDA-MB-435,0.791 µM
same,GI50,COLO 205 colon,1.14 µM
same,TGI,COLO 205 colon,3.53 µM
CCOC(=O)c1ccc(NC2Oc3cc4c(cc3C(c3cc(OC)c(OC)c(OC)c3)C2C)OCO4)cc1 (centres undefined),TGI,786-0 renal,46.6 µM
same,TGI,CAKI-1 renal,0.786 µM
same,TGI,HOP-92 NSCLC,32.2 µM
same,TGI,SNB-75 CNS,0.704 µM
same,TGI,ACHN renal,> 63.4 µM
same,TGI,U251 CNS,> 42.5 µM
same,TGI,UO-31 renal,4.65 µM
same,TGI,MCF7 breast,> 48.5 µM
same,TGI,SK-MEL-5 melanoma,1.49 µM
same,TGI,KM12 colon,3.69 µM
same,TGI,SF-268 CNS,> 40.8 µM
same,TGI,HOP-62 NSCLC,> 71.4 µM
same,TGI,A498 renal,> 100 µM
same,TGI,UACC-62 melanoma,64.5 µM
same,TGI,CCRF-CEM leukemia,> 20.3 µM
same,TGI,UACC-257 melanoma,> 100 µM
same,TGI,EKVX NSCLC,> 100 µM
same,TGI,TK-10 renal,99.5 µM
same,TGI,NCI-H226 lung,16 µM
same,TGI,HCT-116 colon,> 51.7 µM
same,TGI,OVCAR-4 ovarian,> 64.7 µM
same,TGI,NCI/ADR-RES ovarian,8.27 µM
same,TGI,MALME-3M melanoma,0.677 µM
same,TGI,SNB-19 CNS,> 100 µM
same,TGI,T-47D breast,> 100 µM
same,TGI,A549 NSCLC,> 73.2 µM
same,TGI,NCI-H522 lung,10.6 µM
same,TGI,DU-145 prostate,> 100 µM
same,TGI,OVCAR-8 ovarian,33 µM
same,TGI,RXF 393 renal,93.9 µM
same,TGI,M14 melanoma,> 50.9 µM
same,TGI,MDA-MB-231 breast,2.24 µM
same,TGI,SN12C renal,> 71.5 µM
same,TGI,SF-539 CNS,0.878 µM
same,TGI,BT-549 breast,6.76 µM
same,TGI,RPMI-8226 leukemia,4.92 µM
same,TGI,NCI-H23 lung,> 67.3 µM
same,TGI,PC-3 prostate,> 100 µM
same,TGI,HL-60(TB) leukemia,0.564 µM
same,TGI,MOLT-4 leukemia,11.5 µM
same,TGI,LOX IMVI melanoma,32.9 µM
same,TGI,HCC-2998 colon,6.32 µM
same,TGI,IGROV1 ovarian,> 51 µM
same,TGI,SK-OV-3 ovarian,> 21.1 µM
same,TGI,OVCAR-5 ovarian,> 100 µM
same,TGI,HT29 colon,12.9 µM
same,TGI,SW-620 colon,> 100 µM
same,TGI,SK-MEL-2 melanoma,> 63.4 µM
same,TGI,HCT-15 colon,> 54.6 µM
same,TGI,NCI-H460 lung,> 100 µM
same,TGI,SF-295 CNS,2.9 µM
same,TGI,SK-MEL-28 melanoma,> 100 µM
same,TGI,MDA-MB-435,0.448 µM
same,TGI,COLO 205 colon,0.645 µM
